PubChem BioAssay AID2060495 (Molecular Pharmacology Branch, DTP, NCI, 2025)

Test system: 521955-158-R2-J5-PDC complex spheroid viability
Assay: Anticancer human tumor 521955-158-R2-J5-PDC patient-derived pancreatic carcinoma cell line growth inhibition [GQUAD]
Settings: for IC50: curve of first compound; for viability, T/C: stronger effect = lower value
Method in brief: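 Tumor cells were grown as complex spheroids with HUVEC endothelial cells and mesenchymal stem cells as stroma. G-quadruplex stabilizers were combined with targeted agents over half-log dilutions from near the clinical Cmax, or from 10 microM.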

[1] = second compound 0.0316 µM, first compound 0.0316 µM
[2] = second compound 0.0316 µM, first compound 0.1 µM
[3] = second compound 0.0316 µM, first compound 0.316 µM
[4] = second compound 0.0316 µM, first compound 1 µM
[5] = second compound 0.0316 µM, first compound 3.16 µM
[6] = second compound 0.0316 µM, first compound 10 µM
[7] = second compound 0.1 µM, first compound 0.0316 µM
[8] = second compound 0.1 µM, first compound 0.1 µM
[9] = second compound 0.1 µM, first compound 0.316 µM
[10] = second compound 0.1 µM, first compound 1 µM
[11] = second compound 0.1 µM, first compound 3.16 µM
[12] = second compound 0.1 µM, first compound 10 µM
[13] = second compound 0.316 µM, first compound 0.0316 µM
[14] = second compound 0.316 µM, first compound 0.1 µM
[15] = second compound 0.316 µM, first compound 0.316 µM
[16] = second compound 0.316 µM, first compound 1 µM
[17] = second compound 0.316 µM, first compound 3.16 µM
[18] = second compound 0.316 µM, first compound 10 µM
[19] = second compound 1 µM, first compound 0.0316 µM
[20] = second compound 1 µM, first compound 0.1 µM
[21] = second compound 1 µM, first compound 0.316 µM
[22] = second compound 1 µM, first compound 1 µM
[23] = second compound 1 µM, first compound 3.16 µM
[24] = second compound 1 µM, first compound 10 µM
[25] = second compound 3.16 µM, first compound 0.0316 µM
[26] = second compound 3.16 µM, first compound 0.1 µM
[27] = second compound 3.16 µM, first compound 0.316 µM
[28] = second compound 3.16 µM, first compound 1 µM
[29] = second compound 3.16 µM, first compound 3.16 µM
[30] = second compound 3.16 µM, first compound 10 µM
[31] = second compound 10 µM, first compound 0.0316 µM
[32] = second compound 10 µM, first compound 0.1 µM
[33] = second compound 10 µM, first compound 0.316 µM
[34] = second compound 10 µM, first compound 1 µM
[35] = second compound 10 µM, first compound 3.16 µM
[36] = second compound 10 µM, first compound 10 µM
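Also: spheroids exposed to agents for one week before reading.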
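For viability, T/C in this document: 100% = DMSO vehicle control viability.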

Q: Which IC50 (second compound 0.0316 µM) does the source give for `C#Cc1c(F)ccc2cc(O)cc(-c3ncc4c(N5CC6CCC(C5)N6)nc(OCC56CCCN5CC(F)C6)nc4c3F)c12` (stereo unspecified) + Cc1[nH]c2ccc(F)cc2c1-c1nc2c3cccnc3c3ncccc3c2[nH]1 here?
A: 1640 nM

Q: What about the IC50 (second compound 0.1 µM) of the same compound?
A: > 10000 nM

Q: What about the IC50 (second compound 0.316 µM) of the same compound?
A: 3500 nM

Q: And the IC50 (second compound 1 µM)?
A: 7530 nM

Q: And the IC50 (second compound 3.16 µM)?
A: 4290 nM

Q: And the IC50 (second compound 10 µM)?
A: 1040 nM

Q: What about the viability, T/C [1] of the same compound?
A: 79.8%

Q: And the viability, T/C [2]?
A: 68.6%

Q: What about the viability, T/C [3] of the same compound?
A: 67.3%

Q: And the viability, T/C [4]?
A: 40.5%

Q: And the viability, T/C [5]?
A: 57%

Q: And the viability, T/C [6]?
A: 36.3%

Q: And the viability, T/C [7]?
A: 82.2%

Q: And the viability, T/C [8]?
A: 81%

Q: And the viability, T/C [9]?
A: 64.4%

Q: And the viability, T/C [10]?
A: 45.1%

Q: What about the viability, T/C [11] of the same compound?
A: 58.3%

Q: And the viability, T/C [12]?
A: 46.4%

Q: And the viability, T/C [13]?
A: 74.9%

Q: What about the viability, T/C [14] of the same compound?
A: 67.4%

Q: And the viability, T/C [15]?
A: 53%

Q: And the viability, T/C [16]?
A: 61%

Q: And the viability, T/C [17]?
A: 54%

Q: What about the viability, T/C [18] of the same compound?
A: 42.7%

Q: And the viability, T/C [19]?
A: 58.9%

Q: What about the viability, T/C [20] of the same compound?
A: 72.2%

Q: And the viability, T/C [21]?
A: 68.2%

Q: What about the viability, T/C [22] of the same compound?
A: 57.5%

Q: What about the viability, T/C [23] of the same compound?
A: 59.1%

Q: What about the viability, T/C [24] of the same compound?
A: 47.4%

Q: And the viability, T/C [25]?
A: 54.1%

Q: What about the viability, T/C [26] of the same compound?
A: 58.5%

Q: And the viability, T/C [27]?
A: 59.5%

Q: And the viability, T/C [28]?
A: 50%

Q: And the viability, T/C [29]?
A: 62.7%

Q: And the viability, T/C [30]?
A: 30.9%

Q: What about the viability, T/C [31] of the same compound?
A: 53.3%

Q: And the viability, T/C [32]?
A: 55.4%

Q: And the viability, T/C [33]?
A: 60.6%

Q: And the viability, T/C [34]?
A: 47.4%

Q: And the viability, T/C [35]?
A: 39.4%

Q: And the viability, T/C [36]?
A: 26.6%

Q: Which results are given for `O=C(NO)c1cnc(N2CCN(S(=O)(=O)c3ccc4ccccc4c3)CC2)nc1` + CN(C)c1ccc(Nc2c3ccc(NC(=O)CCN4CCCC4)cc3nc3cc(NC(=O)CCN4CCCC4)ccc23)cc1?
A: IC50 (second compound 0.0316 µM): 703 nM; IC50 (second compound 0.1 µM): 668 nM; IC50 (second compound 0.316 µM): 491 nM; IC50 (second compound 1 µM): 550 nM; IC50 (second compound 3.16 µM): 734 nM; IC50 (second compound 10 µM): 376 nM; viability, T/C [1]: 127%; viability, T/C [2]: 105%; viability, T/C [3]: 95.3%; viability, T/C [4]: 30.6%; viability, T/C [5]: 0.19%; viability, T/C [6]: 0.15%; viability, T/C [7]: 120%; viability, T/C [8]: 124%; viability, T/C [9]: 94.7%; viability, T/C [10]: 26%; viability, T/C [11]: 0.16%; viability, T/C [12]: 0.1%; viability, T/C [13]: 118%; viability, T/C [14]: 115%; viability, T/C [15]: 58%; viability, T/C [16]: 31.6%; viability, T/C [17]: 0.13%; viability, T/C [18]: 0.12%; viability, T/C [19]: 121%; viability, T/C [20]: 116%; viability, T/C [21]: 60.9%; viability, T/C [22]: 37%; viability, T/C [23]: 0.15%; viability, T/C [24]: 0.12%; viability, T/C [25]: 109%; viability, T/C [26]: 142%; viability, T/C [27]: 87.5%; viability, T/C [28]: 37.7%; viability, T/C [29]: 0.28%; viability, T/C [30]: 0.13%; viability, T/C [31]: 94%; viability, T/C [32]: 94.1%; viability, T/C [33]: 53.7%; viability, T/C [34]: 17.1%; viability, T/C [35]: 0.27%; viability, T/C [36]: 0.21%

Q: With `O=C(c1cc(Cc2n[nH]c(=O)c3ccccc23)ccc1F)N1CCN(C(=O)C2CC2)CC1` + Cc1[nH]c2ccc(F)cc2c1-c1nc2c3cccnc3c3ncccc3c2[nH]1 as the compound, how does the IC50 (second compound 0.0316 µM) read?
A: > 10000 nM

Q: What about the IC50 (second compound 0.1 µM) of the same compound?
A: > 10000 nM

Q: And the IC50 (second compound 0.316 µM)?
A: > 10000 nM

Q: And the IC50 (second compound 1 µM)?
A: > 10000 nM

Q: What about the IC50 (second compound 3.16 µM) of the same compound?
A: > 10000 nM

Q: And the IC50 (second compound 10 µM)?
A: > 10000 nM

Q: What about the viability, T/C [1] of the same compound?
A: 84.3%

Q: What about the viability, T/C [2] of the same compound?
A: 88.5%

Q: What about the viability, T/C [3] of the same compound?
A: 89.8%

Q: What about the viability, T/C [4] of the same compound?
A: 80.4%

Q: And the viability, T/C [5]?
A: 93%

Q: What about the viability, T/C [6] of the same compound?
A: 74.5%

Q: And the viability, T/C [7]?
A: 83.4%

Q: What about the viability, T/C [8] of the same compound?
A: 80%

Q: What about the viability, T/C [9] of the same compound?
A: 82%

Q: And the viability, T/C [10]?
A: 83.2%

Q: And the viability, T/C [11]?
A: 87.9%

Q: And the viability, T/C [12]?
A: 96.3%

Q: And the viability, T/C [13]?
A: 80.9%

Q: And the viability, T/C [14]?
A: 76.9%

Q: And the viability, T/C [15]?
A: 102%

Q: And the viability, T/C [16]?
A: 102%

Q: What about the viability, T/C [17] of the same compound?
A: 88.3%

Q: What about the viability, T/C [18] of the same compound?
A: 91%

Q: And the viability, T/C [19]?
A: 92.4%

Q: What about the viability, T/C [20] of the same compound?
A: 93%

Q: And the viability, T/C [21]?
A: 99.4%

Q: What about the viability, T/C [22] of the same compound?
A: 98.8%

Q: What about the viability, T/C [23] of the same compound?
A: 104%

Q: And the viability, T/C [24]?
A: 92.7%

Q: What about the viability, T/C [25] of the same compound?
A: 91.8%

Q: And the viability, T/C [26]?
A: 104%

Q: What about the viability, T/C [27] of the same compound?
A: 78.7%

Q: What about the viability, T/C [28] of the same compound?
A: 98.3%

Q: And the viability, T/C [29]?
A: 98.7%

Q: And the viability, T/C [30]?
A: 84.5%

Q: And the viability, T/C [31]?
A: 86.8%

Q: And the viability, T/C [32]?
A: 92.7%

Q: And the viability, T/C [33]?
A: 88.2%

Q: And the viability, T/C [34]?
A: 102%

Q: What about the viability, T/C [35] of the same compound?
A: 92.5%

Q: What about the viability, T/C [36] of the same compound?
A: 82.6%
